In ChEMBL document CHEMBL1135942, “Synthesis of 5,6-dihydro-11H-benzo[5,6]-cyclohepta[1,2-b]pyridin-11-ylidene)-1-piperidine-N-cyanoguanidine derivatives as inhibitors of ras farnesyl protein transferase” (Bioorg Med Chem Lett, 2002):

Biological target: Protein farnesyltransferase (Homo sapiens, UniProt P49354+P49356)
Assay: FPT inhibitory activity was determined by the ability to inhibit the transfer of [3H]farnesyl from farnesyl pyrophosphate to H-ras-CLVS
Assay type: protein-complex assay

| IC50 [µM] | SMILES |
| --- | --- |
| 0.018 | N#CN=C(NCC1CCNCC1)N1CCC(=C2c3ccc(Cl)cc3CCc3cc(Br)cnc32)CC1 |
| 0.032 | N#CN=C(Nc1ccc(C#N)cc1)N1CCC(=C2c3ccc(Cl)cc3CCc3cc(Br)cnc32)CC1 |
| 2.6 | N#CN=C(N)N1CCC(=C2c3ccc(Cl)cc3CCc3cc(Br)cnc32)CC1 |
| 0.124 | CC(C)NC(=NC#N)N1CCC(=C2c3ccc(Cl)cc3CCc3cc(Br)cnc32)CC1 |
| 15.8 | O=C(CN1CCC(=C2c3ccc(Cl)cc3CCc3cccnc32)CC1)c1ccccc1 |
| 0.0082 | O=C(Cc1ccc[n+]([O-])c1)N1CCC([C@H]2c3ncc(Br)cc3CCc3cc(Cl)cc(Br)c32)CC1 |
| 0.042 | CCOC(=O)N1CCC(NC(=NC#N)N2CCC(=C3c4ccc(Cl)cc4CCc4cc(Br)cnc43)CC2)CC1 |
| 0.015 | N#CN=C(Nc1ccc2c(c1)COCO2)N1CCC(=C2c3ccc(Cl)cc3CCc3cc(Br)cnc32)CC1 |
| 0.15 | CC(C)c1ccc(N/C(=N\C#N)N2CCC(=C3c4ccc(Cl)cc4CCc4cc(Br)cnc43)CC2)cc1 |
| 0.199 | N#CN=C(NCC1CCCCC1)N1CCC(=C2c3ccc(Cl)cc3CCc3cc(Br)cnc32)CC1 |
| 0.155 | N#CN=C(NC1CC1)N1CCC(=C2c3ccc(Cl)cc3CCc3cc(Br)cnc32)CC1 |
| 0.015 | N#CN=C(NCc1cccnc1)N1CCC(=C2c3ccc(Cl)cc3CCc3cc(Br)cnc32)CC1 |
| 0.084 | N#CN/C(=N/CCOCCO)N1CCC(=C2c3ccc(Cl)cc3CCc3cc(Br)cnc32)CC1 |
| 0.062 | N#C/N=C(\Nc1ccc([N+](=O)[O-])cc1)N1CCC(=C2c3ccc(Cl)cc3CCc3cc(Br)cnc32)CC1 |
| 0.23 | N#CN=C(NCc1ccccc1)N1CCC(=C2c3ccc(Cl)cc3CCc3cc(Br)cnc32)CC1 |
| 0.029 | N#CN/C(=N/Cc1ccccn1)N1CCC(=C2c3ccc(Cl)cc3CCc3cc(Br)cnc32)CC1 |
| 0.03 | N#CN/C(=N/CCc1ccncc1)N1CCC(=C2c3ccc(Cl)cc3CCc3cc(Br)cnc32)CC1 |
| 0.116 | N#CN=C(Nc1ccccc1)N1CCC(=C2c3ccc(Cl)cc3CCc3cc(Br)cnc32)CC1 |
| 0.32 | N#C/N=C(\Nc1ccc(OC(F)(F)F)cc1)N1CCC(=C2c3ccc(Cl)cc3CCc3cc(Br)cnc32)CC1 |

| IC50 [µM] | SMILES |
| --- | --- |
| 0.31 | COc1ccc(C/N=C(/NC#N)N2CCC(=C3c4ccc(Cl)cc4CCc4cc(Br)cnc43)CC2)cc1 |
| 0.038 | N#CN=C(Nc1ccc2c(c1)OCO2)N1CCC(=C2c3ccc(Cl)cc3CCc3cc(Br)cnc32)CC1 |
| 0.17 | N#CN/C(=N/CCO)N1CCC(=C2c3ccc(Cl)cc3CCc3cc(Br)cnc32)CC1 |
| 0.035 | N#CN/C(=N/CCCn1ccnc1)N1CCC(=C2c3ccc(Cl)cc3CCc3cc(Br)cnc32)CC1 |
| 0.038 | N#CN=C(Nc1ccc(F)cc1)N1CCC(=C2c3ccc(Cl)cc3CCc3cc(Br)cnc32)CC1 |
| 0.058 | N#CN=C(NCCc1cnc[nH]1)N1CCC(=C2c3ccc(Cl)cc3CCc3cc(Br)cnc32)CC1 |
| 0.24 | N#CN/C(=N/Cc1ccc2c(c1)OCO2)N1CCC(=C2c3ccc(Cl)cc3CCc3cc(Br)cnc32)CC1 |
| 0.105 | CCCCNC(=NC#N)N1CCC(=C2c3ccc(Cl)cc3CCc3cc(Br)cnc32)CC1 |
| 0.012 | N#CN=C(NCc1ccc[n+]([O-])c1)N1CCC(=C2c3ccc(Cl)cc3CCc3cc(Br)cnc32)CC1 |
| 0.0017 | N#CN/C(=N/Cc1ccc[n+]([O-])c1)N1CCC([C@H]2c3ncc(Br)cc3CCc3cc(Cl)cc(Br)c32)CC1 |
| 0.006 | N#CN/C(=N/Cc1cc[n+]([O-])cc1)N1CCC(=C2c3ccc(Cl)cc3CCc3cc(Br)cnc32)CC1 |
| < 0.11 | N#CN/C(=N/c1ccncc1)N1CCC(=C2c3ccc(Cl)cc3CCc3cc(Br)cnc32)CC1 |
| 0.074 | CN(C)CCCC/N=C(/NC#N)N1CCC(=C2c3ccc(Cl)cc3CCc3cc(Br)cnc32)CC1 |
| 0.086 | N#CN/C(=N/c1ccccc1)N1CCC(=C2c3ccc(Cl)cc3CCc3cccnc32)CC1 |
| 0.082 | CS(=O)(=O)c1ccc(N/C(=N\C#N)N2CCC(=C3c4ccc(Cl)cc4CCc4cc(Br)cnc43)CC2)cc1 |
| 0.1 | CN(C)c1ccc(CNC(=NC#N)N2CCC(=C3c4ccc(Cl)cc4CCc4cc(Br)cnc43)CC2)cc1 |
| 0.006 | N#CN/C(=N/CC1CCN(C(N)=O)CC1)N1CCC(=C2c3ccc(Cl)cc3CCc3cc(Br)cnc32)CC1 |
| 0.02 | N#CN/C(=N/C1CCCCC1)N1CCC(=C2c3ccc(Cl)cc3CCc3cc(Br)cnc32)CC1 |
